Blank lines part the entries; values can stand above or below the molecule they belong to.
Assays:
[1] = SPECT/CT imaging, SG uptake in rodent models; assay type: in vivo
[2] = SPECT/CT imaging, gland uptake in a human subject; assay type: in vivo
[3] = system: tumor; experiment: PET scan imaging of 68Ga-PSMA-617 tumor uptake; assay type: in vivo; details: rodent models, PET scan image of a mouse, FIG. 2 panel A
[4] = system: PC3-PSMA model; experiment: PET scan imaging, tumor uptake in rodents; assay type: in vivo, mouse
[5] = PET scan imaging, salivary gland uptake in non-human primate; assay type: in vivo; details: 24 hours post injection, relative to 64Cu-PSMA-617, FIG. 1 panel B
Description: (§1) Indeed, SGs uptake of ^64Cu-NOTA-UNC-PSMA2 is only 1/10th of ^64Cu-PSMA-617 at 24 h post-injection in the NHP study (FIG. 1, panel B).

[6] = system: tumor; experiment: Imaging, tumor uptake in non-human primate models; assay type: in vivo; details: non-human primate (NHP) models, times higher than PSMA-617
Description: as §1

[7] = system: tumor; experiment: PET scan imaging, tumor uptake of bifunctional (Sar cage) core compound; assay type: in vivo; details: mouse, FIG. 5

Structure (SMILES): O=C(O)CC[C@H](NC(=O)N[C@@H](CCCCNC(=O)[C@H](Cc1ccc2ccccc2c1)NC(=O)[C@H]1CC[C@H](CNC(=O)CN2CCN(CC(=O)O)CCN(CC(=O)O)CCN(CC(=O)O)CC2)CC1)C(=O)O)C(=O)O.[Lu+3] [^177Lu-PSMA-617]
- SG uptake (in words) [1]: prominent SG uptake
- SG uptake (in words) ([2]; SPECT/CT imaging): prominent SG uptake
- glands uptake (in words) ([2]; SPECT/CT, 24 hours post injection, FIG. 2 panel B): high glands uptake

Structure (SMILES): O=C(O)CC[C@H](NC(=O)N[C@@H](CCCCNC(=O)[C@H](Cc1ccc2ccccc2c1)NC(=O)[C@H]1CC[C@H](CNC(=O)CN2CCN(CC(=O)O)CCN(CC(=O)O)CCN(CC(=O)O)CC2)CC1)C(=O)O)C(=O)O.[Ga+3] [^68Ga-PSMA-617]
- tumor uptake profile (in words) [3]: clean tumor uptake profile

- tumor uptake (in words) ([4]; mouse, PC3-PSMA model, PET scan image, FIG. 1 panel A): high and persistent tumor uptake
- tumor uptake compared to PSMA-617 ([4]; rodent models, times higher than PSMA-617): 2-3 times
- SG uptake relative to 64Cu-PSMA-617 [5]: 1/10
- tumor uptake compared to PSMA-617 [6]: 2-3 times
Structure (SMILES): O=C(O)CC[C@H](NC(=O)N[C@@H](CCCCNC(=O)[C@H](Cc1ccc2ccccc2c1)NC(=O)C1CCC(CNC(=O)CSCCS(=O)(=O)CCOCCn2c(=O)n(CCOCCS(=O)(=O)CCSCC(=O)NC[C@H]3CC[C@H](C(=O)N[C@@H](Cc4ccc5ccccc5c4)C(=O)NCCCC[C@H](NC(=O)N[C@@H](CCC(=O)O)C(=O)O)C(=O)O)CC3)c(=O)n(CCOCCS(=O)(=O)CCSCC(=O)Nc3ccc(CC4CN(CC(=O)O)CCN(CC(=O)O)CCN4CC(=O)O)cc3)c2=O)CC1)C(=O)O)C(=O)O (stereo partly shown) [^64Cu-NOTA-UNC-PSMA2, metal not drawn]
- distribution (in words) ([4]; 24 and 48 h post injection, FIG. 1 panel A): persistent as only the tumor demonstrated prominent compound uptake

Structure (SMILES): N#CC1CCCN1C(=O)CNC(=O)c1ccnc2ccc(OCCCN3CCN(C(=O)CCOCCOCCNC(=O)NC45CNCCNCC(NC(=O)NCCOCCOCCC(=O)N6CCN(CCCOc7ccc8nccc(C(=O)NCC(=O)N9CCCC9C#N)c8c7)CC6)(CNCCNC4)CNCCNC5)CC3)cc12 (stereo not shown)
- uptake into a tumor (in words) [7]: Uptake of this compound into a tumor

Reference: patent US20260335472A1, “MULTIFUNCTIONAL COMPOUND CORE FOR ACTIVE AGENTS AND USES THEREOF” (THE UNIVERSITY OF NORTH CAROLINA AT CHAPEL HILL, priority 2023, published 2026)
